Experimental data reported in patent US5691382A, “Inhibition of TNF production with matrix metaloproteinase inhibitors” (British Biotech Pharmaceuticals Limited, priority 1992, dated 1997).

Tests used:
TNF α [1] = experiment: inhibition of endotoxin (LPS) induced TNF production in vivo in anaesthetised rats; set-up: species or system Male CD rats; conditions: rat, 10 mg.kg^-1 intraperitoneally, 1 hour prior to LPS
Method: Test compounds were assessed for their ability to inhibit release of endotoxin induced TNF production in vivo.
(§1) Male CD rats (Charles River, UK) weighing between 300 g-400 g were anaesthetised with an intra-peritoneal injection of a mixture of 62.5 mg.kg^-1 thiopental and 22.5 mg.kg^-1 sodium pentobarbitone (Thiopental, Sigma Chemical Co., UK; Sodium pentobarbitone (Sagatal), May and Baker., UK). The trachea was exposed and cannulated to allow spontaneous respiration through a patent airway. The left jugular vein was exposed and cannulated for the administration of LPS. The right femoral artery was exposed and cannulated for withdrawal of blood samples. Blood samples (1 ml) were removed 5 minutes prior to bolus administration of either LPS (E. coil serotype 0111:b4, Difco Laboratories, USA) or saline (NaCL 0.9% w/v) and at intervals of 1 hour and 2 hours after LPS. Removed blood was replaced with equal amounts of saline.
The peak of TNF release was at the 1 hour timepoint. TNF levels were expressed in units/ml where 1 unit is the equivalent of 1 pg of mouse TNF α.
(§2) Rat serum TNF levels were measured using a mouse TNF α reference standard. The commercial ELISA kits were from Genzyme.
Test compounds were administered intraperitoneally to anaesthetised rats at a dose of 10 mg.kg^-1, 1 hour prior to LPS administration.
The results are expressed as the % inhibition of maximal TNF elevation relative to control: […]

[2] = system: TNFα release from human monocytic cell line, U937; experiment: inhibition of TNFα release from PMA-stimulated human monocytic cell line U937 (18 h, ELISA); assay type: cell-based; conditions: U-937, PMA 50 nM, U937 cells, 18 hours at 37° C., reported by Group A/B/C, read-out: IC50 (concentration which inhibits the release of TNFα by 50% relative to the control culture)
Method: Metalloproteinase inhibitors can prevent the release of TNF from PMA-stimulated human monocytic cell line U937.
The ability of representative compounds, which are inhibitors of metalloproteinases, to inhibit the release of TNF was investigated. The assay is based on the ability of phorbol myristate acetate (PMA) to stimulate the release of TNFα from a human monocytic cell line, U937.
U937 cells cultured in RPMI 1640 medium +5% foetal calf serum were centrifuged at 1000×g for 5 minutes and then resuspended in medium at 2×10^6 /ml. 1 ml of cell suspension was aliquoted into individual wells of 24-well plates. Test compounds were dissolved in dimethyl sulphoxide (DMSO) at a stock concentration of 100 mM, then diluted to 50×the final required concentration with RPMI 1640 medium. 20 μl of the diluted compounds were added to U937 cells in duplicate wells. TNFα release was stimulated by addition of PMA to the cells at a final concentration of 50 nM. Appropriate control cultures were set up in duplicate. The plates were incubated for 18 hours at 37° C., 5% CO2, then centrifuged at 1000 ×g for 5 minutes. A specific ELISA for TNFα obtained from British Bio-technology Products Limited, Abingdon, England was used to measure TNFα levels in the culture supernatants according to the protocol supplied.
The average concentration of test compound which inhibits the release of TNFα by 50% relative to the control culture was assessed as greater than 90 μM, in the range 10 μM-90 μM, or less than 10 μM.

TNF α [3] = experiment: variation: infusion of compound before LPS, inhibition of TNF elevation in vivo; set-up: species or system Male CD rats; conditions: rat, infusion 1 mg/kg/hr, 15 minutes prior to LPS 500 μg.kg^-1, for 2 hours
Method: as §1, §2

| IC50 [2] | SMILES | % Inhibition of Maximal TNF Elevation relative to control (TNF α [1]) | inhibition of maximal TNF elevation relative to control (TNF α [3]) |
| --- | --- | --- | --- |
| < 10 µM | CNC(=O)[C@H](Cc1ccc(OC)cc1)NC(=O)[C@H](CC(C)C)[C@H](C)C(=O)NO [Compound 1, 3R-(2-(4-methoxyphenyl)-1S-methylcarbamoyl-ethylcarbamoyl)-2S,5-dimethyl-hexanohydroxamic acid] | 0% |  |
|  | CNC(=O)[C@H](Cc1ccccc1)NC(=O)[C@H](CC(C)C)[C@H](CS(=O)(=O)c1cccs1)C(=O)NO [Compound 99, 2S-(thien-2-ylsulfonylmethyl)-3R-(2-phenyl-1S-methylcarbamoyl-ethylcarbamoyl)-5-methyl-hexanohydroxamic acid] | 55% |  |
|  | CNC(=O)[C@H](Cc1ccc(OCC(=O)O)cc1)NC(=O)[C@H](CC(C)C)[C@H](CSc1cccs1)C(=O)NO [Compound 29, 2S-(thien-2-ylsulphanylmethyl)-3R-(2-(4-carboxymethoxyphenyl)-1S-methylcarbamoyl-ethylcarbamoyl)-5-methyl-hexanohydroxamic acid] |  | 60% |
| < 10 µM | CNC(=O)[C@H](Cc1ccccc1)NC(=O)[C@H](CC(C)C)[C@H](CSc1cccs1)C(=O)NO [Compound 3, 2S-(thien-2-ylsulfanylmethyl)-3R-(2-phenyl-1S-methylcarbamoyl-ethylcarbamoyl)-5-methyl-hexanohydroxamic acid] |  |  |
| 10 to 90 µM | CNC(=O)[C@H](Cc1ccc(OC)cc1)NC(=O)[C@@H](CC(=O)NO)CC(C)C [Compound 70, 3R-(2(4-methoxyphenyl)-1S-methylcarbamoyl-ethylcarbamoyl)-5-methyl-hexanohydroxamic acid] | 37% |  |
| < 10 µM | CNC(=O)[C@H](Cc1ccccc1)NC(=O)[C@H](CC(C)C)[C@H](CSc1ccccc1)C(=O)NO [Compound 2, 2S-(phenylsulfanylmethyl)-3R-(2-phenyl-1S-methylcarbamoyl-ethylcarbamoyl)-5-methyl-hexanohydroxamic acid] |  |  |
|  | CNC(=O)[C@H](Cc1ccccc1)NC(=O)[C@H](CCc1ccccc1)CC(=O)NO [Compound 87, 3R-(2-phenyl-1S-methylcarbamoyl-ethylcarbamoyl)-5-phenyl-pentanohydroxamicacid] | 4% |  |
|  | CNC(=O)[C@@H](NC(=O)[C@@H](CC(=O)NO)CC(C)C)C(C)(C)C [Compound 88, 3R-(2,2-dimethyl-1S-methylcarbamoyl-propylcarbamoyl)-5-methyl-hexanohydroxamic acid] | 66% |  |
| > 90 µM | CC(C)C[C@H](CC(=O)NO)C(=O)NC1Cc2ccccc2NC1=O (stereo partly drawn) [Compound 101, 3R-(2-oxo-1,2,3,4-tetrahydro-quinoli-3-ylcarbamoyl)-5-methyl-hexanohydroxamic acid] |  |  |
|  | CC(C)C[C@H](CC(=O)NO)C(=O)N[C@@H](Cc1ccccc1)C(=O)NCCCN1CCCC1=O [Compound 74, 3R-(2-phenyl-1S-[2-oxo-pyrolid-1-yl]propylcarbamoyl-ethylcarbamoyl)-5-methyl-hexanohydroxamic acid] | 28% |  |
| > 90 µM | COc1ccc(C[C@H](NC(=O)[C@@H](CC(=O)NO)CC(C)C)C(=O)N(C)C)cc1 [Compound 100, 3R-(2-(4-methoxyphenyl)-1S-dimethylcarbamoyl-ethylcarbamoyl)-5-methyl-hexanohydroxamic acid] |  |  |
|  | CCOC(=O)CNC(=O)[C@H](CC(C)C)NC(=O)[C@H](CC(C)C)[C@H](CCCCN1C(=O)c2ccccc2C1=O)C(=O)NO [Compound 93, 2S-(4-phthalimido-butyl)-3R-(3-methyl-1S-ethoxycarbonylmethylcarbamoyl-butylcarbamoyl)-5-methyl-hexanohydroxamic acid] | 43% |  |
|  | CC(C)C[C@H](CC(=O)NO)C(=O)N[C@@H](Cc1ccccc1)C(=O)NCc1cccnc1 [Compound 98, 3R-(2-phenyl-1S-[pyrid-3-ylmethylcarbamoyl]-ethylcarbamoyl)-5-methyl-hexanohydroxamic acid] | 28% |  |
|  | CNC(=O)[C@H](Cc1ccc(NC(C)=O)cc1)NC(=O)[C@@H](CC(=O)NO)CC(C)C [Compound 23, 3R-(2-(4-acetamidophenyl)-1S-methylcarbamoyl-ethylcarbamoyl)-5-methyl-hexanohydroxamic acid] | 35% |  |
| 10 to 90 µM | CNC(=O)[C@H](Cc1ccc(OC)cc1)NC(=O)[C@@H](CC(C)C)[C@H](C)C(=O)NO [Compound 69, 3S-(2(4-methoxyphenyl)-1S-methylcarbamoyl-ethylcarbamoyl)-2S,5-dimethyl-hexanohydroxamic acid] |  |  |
